In test [1] the test system is CB CD34+ cells (cord blood derived CD34+ HSCs). The test can be described thus: Co-culture of cord blood CD34+ cells with MPCs and small molecules, 4-colour flow cytometric analysis. Type of test: cell-based, human. The settings on record: for expansion of CD34+ cells with the primitive HSC phenotype CD34+CD45RA− CD90+CD49f+: day 10, presence of MPCs and HDACi versus absence of MPCs or a HDACi (FIG. 9). The procedure:
• Cells: CB CD34+ (Stem Cell Technologies) • Medium: StemSpan SFEM (StemCell Technologies) supplemented with: • Human low density lipoprotein (Stem Cell Technologies) 10 μg/ml • Growth Factors (‘SFT’): • rHu-SCF 100 ng/ml • rHu-FLT3Ligand 100 ng/ml • rHu-TPO 50 ng/ml • (All recombinant cytokines are from R&D Systems) • Small Molecules: • SR1 (500 nM); UM171 (35 nM); Trichostatin A (TSA, 50 nM); Valproic Acid (VPA, 500 μM) (all from Stem Cell Technologies) • Assay conditions: • Day −1 MPC (MCBCC006) plated at 50,000/well in 2×24-well plates in Alpha-MEM/10% FBS • Day 0 10,000 CD34+ cells per well plated into each well of two 24 well plates. MPC containing wells were first washed to remove FBS medium. • The remaining CD34+ cells were cultured at the same concentration in a T-25 flask in StemSpan/SFT/SR-1+ UM171. This was to provide bulk cells for set up of flow cytometry analysis and to define electronic compensation settings for multicolour analysis. • Day 3 All groups were fed by removing 1.5 mL of media and replacing with 2.0 mL of fresh media+additives. • Day 5 Flow cytometric analysis: 1.5 mL of culture media was harvested from each well. For the suspension (No MPG) groups this was achieved by first aspirating the medium up and down to completely suspend the CD34+ cells before removing 1.5 mL of the suspension. For the +MPG groups, the CD34+ cells were resuspended in such a way that the MPC feeder layer was left intact. After the cells were removed from each well, they were replaced with 2.0 mL of fresh media+additives. A cell count was performed on all wells. This was required to determine not only the incidence of populations identified by FACS analysis, but also their absolute number. • Day 8 All groups were fed by removing 2.0 mL of media and replacing with 2.0 mL of fresh media and additives. • Day 10 Flow cytometric analysis: The complete content of each well was harvested. For the suspension (No MPG) groups this was achieved by first aspirating the medium up and down to completely suspend the CD34+ cells before removing the suspension. For the +MPG groups, the CD34+ cells in suspension were first harvested (as described above for Day 5). CD34+ cells attached to the MPC layer were then detached by a brief exposure (5 mins) to 0.05% trypsin-EDTA in PBS at 37° C., the trypsin quenched in 10% FBS and the detached cells pooled with the previously harvested suspension fraction to represent the Day 10 harvest.
A 4-colour flow cytometric analysis was performed to allow identification and quantitation of CD34+ cells and relevant subpopulations including candidate hematopoietic stem cells (HSC) according to the phenotype CD34+CD45RA− CD90+CD49f+ described for cord blood (Notta et al., (2011) Science 333: 218-221). All antibody conjugates were used at concentrations recommended by the manufacturers.
As noted above, the bulk culture of CD34+ cells in StemSpan/SFT/SR-1+ UM171 was used at both Day 5 and Day 10 to establish settings for flow cytometric analysis and to establish compensation settings. Stains with the following antibody/antibody combinations were performed:
Cord blood derived CD34+ HSCs were cultured in the presence and absence of immunoselected MPCs in the presence of: […]
In general terms: In flow cytometry, cells or beads pass a laser one at a time.

Test [2] has as its system CD34+CD38-CD45RA− CD90+CD49f+ cells. The test can be described thus: Colony-forming unit (CFU) assay in MethoCult H4435 Enriched of FACS-isolated cells. Type of test: cell-based, human. The note with it: cells isolated by FACS after 10 days in co-culture with MPCs, SFV and VPA; colonies scored on day 14. The procedure: FIG. 11: CD34+CD38-CD45RA− CD90+CD49f+ cells isolated by FACS were cultured in MethoCult™ H4435 Enriched (Stem cell Technologies), and tested for colony forming efficiency on day 14 of culture. Overall colony forming efficiency was 0.42%.
CD34+CD38-CD45RA− CD90+CD49f+ cells were isolated by FACS after 10 days in co-culture with MPCs, SFV and VPA. These isolated cells were then cultured in MethoCult™ H4435 Enriched (Stem cell Technologies), which is a complete methylcellulose-based medium containing IL-3, IL-6, G-CSF, GM-CSF, SCF and EPO and useful for growth and enumeration of hematopoietic progenitor cells in colony-forming unit (CFU) assays). Colonies were scored on day 14 of culture and tested for colony forming efficiency. […] Overall colony forming efficiency was 0.42%.

Molecules are shown by their SMILES.

As for `CC(/C=C/C(=O)NO)=C\[C@@H](C)C(=O)c1ccc(N(C)C)cc1` [TSA, Trichostatin A], in test [1], the “expansion of CD34+ cells with the primitive HSC phenotype CD34+CD45RA− CD90+CD49f+” value was “substantially greater expansion”.

For `CCCC(CCC)C(=O)O` [VPA, Valproic Acid], the “number of CD34+CD45RA− CD90+CD49f+ cells” value in test [1] (after 10 days in co-culture with MPCs, SFV and VPA (500 μM), start about 500 primitive cells) was “about 22,000 cells”. For the same molecule, in test [1] (after 10 days in co-culture with MPCs, SFV and VPA (500 μM), start about 10,000 CD34+ cells), the “number of CD34+ cells” value is given as “about 800,000 cells”. For the same molecule, the “expansion of CD34+ cells with the primitive HSC phenotype CD34+CD45RA− CD90+CD49f+” value in test [1] is “substantially greater expansion”. The “increase in the number of CD34+CD90+CD49f+ cells” value in test [1] (over a 10 day period, co-culture with MPCs, SFV and VPA) is recorded as about 44 fold. Besides, the “overall colony forming efficiency” value in test [2] is given as 0.42%.

These data come from patent US20210388319A1, “EXPANSION OF HEMATOPOIETIC STEM CELLS” (Mesoblast International Sarl, priority 2018, published 2021).
